{
  "source": "patent US20220289708A1",
  "about": "“SUBSTITUTED N-PHENYL URACILS, SALTS THEREOF AND THEIR USE AS HERBICIDAL AGENTS” (Bayer Aktiengesellschaft, priority 2019, published 2022)",
  "type_in_all_cases": "in vivo",
  "key": {"[1]": {"test_system": "Abutilon theophrasti", "assay": "Post-emergence herbicidal action", "details": "rated visually after about 3 weeks vs untreated controls", "in_short": "(§1)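 Percent activity, judged by eye about 3 weeks after treatment relative to untreated plants, ranges from 0% (as control) to 100% (plants dead). Foliar application at 20 g/ha and less was made at the one-leaf stage using a 600 l/ha aqueous spray containing 0.5% additive.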"}, "[2]": {"test_system": "Amaranthus retroflexus", "assay": "Post-emergence herbicidal action", "details": "rated visually after about 3 weeks vs untreated controls", "in_short": "as §1"}, "[3]": {"test_system": "Digitaria sanguinalis", "assay": "Post-emergence herbicidal action", "details": "application rate 20 g/ha, rated visually after about 3 weeks vs untreated controls", "in_short": "as §1"}, "[4]": {"test_system": "Echinochloa crus-galli", "assay": "Post-emergence herbicidal action", "details": "rated visually after about 3 weeks vs untreated controls", "in_short": "as §1"}, "[5]": {"test_system": "Matricaria inodora", "assay": "Post-emergence herbicidal action", "details": "rated visually after about 3 weeks vs untreated controls", "in_short": "as §1"}, "[6]": {"test_system": "Pharbitis purpurea", "assay": "Post-emergence herbicidal action", "details": "rated visually after about 3 weeks vs untreated controls", "in_short": "as §1"}, "[7]": {"test_system": "Polygonum convolvulus", "assay": "Post-emergence herbicidal action", "details": "application rate 20 g/ha", "in_short": "as §1"}, "[8]": {"test_system": "Setaria viridis", "assay": "Post-emergence herbicidal action", "details": "application rate 20 g/ha, rated visually after about 3 weeks vs untreated controls", "in_short": "as §1"}, "[9]": {"test_system": "Veronica persica", "assay": "Post-emergence herbicidal action", "in_short": "as §1"}, "[10]": {"test_system": "Viola tricolor", "assay": "Post-emergence herbicidal action", "details": "application rate 20 g/ha", "in_short": "as §1"}, "[11]": {"test_system": "Oryza sativa", "assay": "Post-emergence crop plant compatibility", "in_short": "(§2)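 Greenhouse crop plants in sandy loam sprayed at one-leaf stage (2-3 weeks after sowing) with WP or EC formulations plus 0.5% additive, 600 l/ha water, at 5 g/ha or 20 g/ha. Damage scored visually after about 3 weeks as % versus untreated controls (100% = plants dead).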"}, "[12]": {"test_system": "Zea mays", "assay": "Post-emergence crop plant compatibility", "in_short": "as §2"}, "[13]": {"test_system": "Alopecurus myosuroides", "assay": "Post-emergence herbicidal action", "details": "application rate 20 g/ha, rated visually after about 3 weeks vs untreated controls", "in_short": "as §1"}, "[14]": {"test_system": "Avena fatua", "assay": "Post-emergence herbicidal action", "details": "application rate 20 g/ha, rated visually after about 3 weeks vs untreated controls", "in_short": "as §1"}, "[15]": {"test_system": "Triticum aestivum", "assay": "Post-emergence crop plant compatibility", "details": "application rate 5 g/ha", "in_short": "as §2"}, "[16]": {"test_system": "Abutilon theophrasti", "assay": "Pre-emergence herbicidal action", "details": "application rate 20 g/ha", "description": "(§3) B. Pre-Emergence Herbicidal Action and Crop Plant Compatibility Seeds of monocotyledonous and dicotyledonous weed plants and crop plants were placed in plastic or organic planting pots and covered with soil. The compounds of the invention, formulated in the form of wettable powders (WP) or as emulsion concentrates (EC), were then applied to the surface of the covering soil as aqueous suspension or emulsion with addition of 0.5% additive at a water application rate equivalent to 600 l/ha (converted). After the treatment, the pots were placed in a greenhouse and kept under good growth conditions for the test plants. After about 3 weeks, the effect of the preparations was scored visually in comparison with untreated controls as percentages. For example, 100% activity=the plants have died, 0% activity=like control plants. Tables B1 to B13 below show the effects of selected compounds of the general formula (I) according to Tables I.1 to I.36 on various harmful plants and at an application rate corresponding to 80 g/ha or less, which were obtained by the experimental procedure mentioned above."}, "[17]": {"test_system": "Alopecurus myosuroides", "assay": "Pre-emergence herbicidal action", "details": "application rate 80 g/ha", "description": "as §3"}, "[18]": {"test_system": "Amaranthus retroflexus", "assay": "Pre-emergence herbicidal action", "details": "application rate 20 g/ha", "description": "as §3"}, "[19]": {"test_system": "Avena fatua", "assay": "Pre-emergence herbicidal action", "details": "application rate 80 g/ha", "description": "as §3"}, "[20]": {"test_system": "Digitaria sanguinalis", "assay": "Pre-emergence herbicidal action", "details": "application rate 20 g/ha", "description": "as §3"}, "[21]": {"test_system": "Echinochloa crus-galli", "assay": "Pre-emergence herbicidal action", "details": "application rate 80 g/ha", "description": "as §3"}, "[22]": {"test_system": "Lolium rigidum", "assay": "Pre-emergence herbicidal action", "details": "application rate 80 g/ha", "description": "as §3"}, "[23]": {"test_system": "Matricaria inodora", "assay": "Pre-emergence herbicidal action", "details": "application rate 20 g/ha", "description": "as §3"}, "[24]": {"test_system": "Pharbitis purpurea", "assay": "Pre-emergence herbicidal action", "details": "application rate 20 g/ha", "description": "as §3"}, "[25]": {"test_system": "Polygonum convolvulus", "assay": "Pre-emergence herbicidal action", "details": "application rate 20 g/ha", "description": "as §3"}, "[26]": {"test_system": "Setaria viridis", "assay": "Pre-emergence herbicidal action", "details": "application rate 20 g/ha", "description": "as §3"}, "[27]": {"test_system": "Veronica persica", "assay": "Pre-emergence herbicidal action", "details": "application rate 20 g/ha", "description": "as §3"}, "[28]": {"test_system": "Viola tricolor", "assay": "Pre-emergence herbicidal action", "details": "application rate 20 g/ha", "description": "as §3"}, "[29]": {"test_system": "Zea mays", "assay": "Pre-emergence crop plant compatibility", "details": "application rate 20 g/ha", "description": "B. Pre-Emergence Herbicidal Action and Crop Plant Compatibility\nas §3, with “Seeds” for “B. Pre-Emergence Herbicidal Action and Crop Plant Compatibility Seeds”, “plants.” for “plants. Tables B1 to B13 below show the effects of selected compounds of the general formula (I) according to Tables I.1 to I.36 on various harmful plants and at an application rate corresponding to 80 g/ha or less, which were obtained by the experimental procedure mentioned above.”\nTables B14 to B16 below show the crop plant compatibilities of selected compounds of the general formula (I) according to Tables I.1 to I.36 at an application rate corresponding to 20 g/ha, which were obtained in experiments according to the experimental procedure mentioned above. Here, the observed effects on selected crop plants are stated in comparison to the untreated controls (values in %)."}},
  "data": [
    {"smiles": "COCCOCCOC(=O)COc1ncccc1Oc1cc(-n2c(=O)cc(C(F)(F)F)n(C)c2=O)c(F)cc1[N+](=O)[O-]", "note": "[I.14-23]", "values": [
      {"measurement": "Abutilon theophrasti (efficacy in %)", "setting": "[1]; application rate 20 g/ha", "result": 100, "unit": "%"},
      {"measurement": "Amaranthus retroflexus (efficacy in %)", "setting": "[2]; application rate 20 g/ha", "result": 100, "unit": "%"},
      {"measurement": "Digitaria sanguinalis (efficacy in %)", "setting": "[3]", "result": 100, "unit": "%"},
      {"measurement": "Echinochloa crus-galli (efficacy in %)", "setting": "[4]; application rate 20 g/ha", "result": 100, "unit": "%"},
      {"measurement": "Matricaria inodora (efficacy in %)", "setting": "[5]; application rate 20 g/ha", "result": 100, "unit": "%"},
      {"measurement": "Pharbitis purpurea (efficacy in %)", "setting": "[6]; application rate 20 g/ha", "result": 100, "unit": "%"},
      {"measurement": "Polygonum convolvulus (efficacy in %)", "setting": "[7]", "result": 100, "unit": "%"},
      {"measurement": "Setaria viridis (efficacy in %)", "setting": "[8]", "result": 100, "unit": "%"},
      {"measurement": "Veronica persica (efficacy in %)", "setting": "[9]; application rate 20 g/ha", "result": 100, "unit": "%"},
      {"measurement": "Viola tricolor (efficacy in %)", "setting": "[10]", "result": 100, "unit": "%"},
      {"measurement": "Oryza sativa (efficacy in %)", "setting": "[11]; application rate 20 g/ha", "result": 10, "unit": "%"},
      {"measurement": "Zea mays (efficacy in %)", "setting": "[12]; application rate 20 g/ha", "result": 10, "unit": "%"}
    ]},
    {"smiles": "Cn1c(C(F)(F)F)cc(=O)n(-c2cc(Oc3cccnc3OCC(=O)OC3COC3)c([N+](=O)[O-])cc2F)c1=O", "note": "[I.14-115]", "values": [
      {"measurement": "Alopecurus myosuroides (efficacy in %)", "setting": "[13]", "result": 100, "unit": "%"},
      {"measurement": "Amaranthus retroflexus (efficacy in %)", "setting": "[2]; application rate 20 g/ha", "result": 100, "unit": "%"},
      {"measurement": "Avena fatua (efficacy in %)", "setting": "[14]", "result": 80, "unit": "%"},
      {"measurement": "Digitaria sanguinalis (efficacy in %)", "setting": "[3]", "result": 100, "unit": "%"},
      {"measurement": "Echinochloa crus-galli (efficacy in %)", "setting": "[4]; application rate 20 g/ha", "result": 100, "unit": "%"},
      {"measurement": "Matricaria inodora (efficacy in %)", "setting": "[5]; application rate 20 g/ha", "result": 100, "unit": "%"},
      {"measurement": "Pharbitis purpurea (efficacy in %)", "setting": "[6]; application rate 20 g/ha", "result": 100, "unit": "%"},
      {"measurement": "Polygonum convolvulus (efficacy in %)", "setting": "[7]", "result": 100, "unit": "%"},
      {"measurement": "Setaria viridis (efficacy in %)", "setting": "[8]", "result": 100, "unit": "%"},
      {"measurement": "Veronica persica (efficacy in %)", "setting": "[9]; application rate 20 g/ha", "result": 100, "unit": "%"},
      {"measurement": "Viola tricolor (efficacy in %)", "setting": "[10]", "result": 100, "unit": "%"},
      {"measurement": "Oryza sativa (efficacy in %)", "setting": "[11]; application rate 20 g/ha", "result": 20, "unit": "%"},
      {"measurement": "Zea mays (efficacy in %)", "setting": "[12]; application rate 5 g/ha", "result": 20, "unit": "%"}
    ]},
    {"smiles": "Cn1c(C(F)(F)F)cc(=O)n(-c2cc(Oc3cccnc3OCC(=O)OCc3ccc(C(F)(F)F)nc3)c(Cl)cc2F)c1=O", "note": "[I.15-350, [6-(Trifluoromethyl)pyridin-3-yl]methyl [(3-{2-chloro-4-fluoro-5-[3-methyl-2,6-dioxo-4-(trifluoromethyl)-3,6-dihydropyrimidin-1(2H)-yl]phenoxy}pyridin-2-yl)oxy]acetate]", "values": [
      {"measurement": "Abutilon theophrasti (efficacy in %)", "setting": "[1]; application rate 5 g/ha", "result": 100, "unit": "%"},
      {"measurement": "Amaranthus retroflexus (efficacy in %)", "setting": "[2]; application rate 5 g/ha", "result": 100, "unit": "%"},
      {"measurement": "Echinochloa crus-galli (efficacy in %)", "setting": "[4]; application rate 5 g/ha", "result": 100, "unit": "%"},
      {"measurement": "Matricaria inodora (efficacy in %)", "setting": "[5]; application rate 5 g/ha", "result": 80, "unit": "%"},
      {"measurement": "Pharbitis purpurea (efficacy in %)", "setting": "[6]; application rate 5 g/ha", "result": 100, "unit": "%"},
      {"measurement": "Veronica persica (efficacy in %)", "setting": "[9]; application rate 5 g/ha", "result": 100, "unit": "%"},
      {"measurement": "Oryza sativa (efficacy in %)", "setting": "[11]; application rate 5 g/ha", "result": 20, "unit": "%"},
      {"measurement": "Triticum aestivum (efficacy in %)", "setting": "[15]", "result": 20, "unit": "%"},
      {"measurement": "Abutilon theophrasti (efficacy in %)", "setting": "[16]", "result": 100, "unit": "%"},
      {"measurement": "Alopecurus myosuroides (efficacy in %)", "setting": "[17]", "result": 100, "unit": "%"},
      {"measurement": "Amaranthus retroflexus (efficacy in %)", "setting": "[18]", "result": 100, "unit": "%"},
      {"measurement": "Avena fatua (efficacy in %)", "setting": "[19]", "result": 100, "unit": "%"},
      {"measurement": "Digitaria sanguinalis (efficacy in %)", "setting": "[20]", "result": 100, "unit": "%"},
      {"measurement": "Echinochloa crus-galli (efficacy in %)", "setting": "[21]", "result": 100, "unit": "%"},
      {"measurement": "Lolium rigidum (efficacy in %)", "setting": "[22]", "result": 100, "unit": "%"},
      {"measurement": "Matricaria inodora (efficacy in %)", "setting": "[23]", "result": 100, "unit": "%"},
      {"measurement": "Pharbitis purpurea (efficacy in %)", "setting": "[24]", "result": 100, "unit": "%"},
      {"measurement": "Polygonum convolvulus (efficacy in %)", "setting": "[25]", "result": 100, "unit": "%"},
      {"measurement": "Setaria viridis (efficacy in %)", "setting": "[26]", "result": 100, "unit": "%"},
      {"measurement": "Veronica persica (efficacy in %)", "setting": "[27]", "result": 100, "unit": "%"},
      {"measurement": "Viola tricolor (efficacy in %)", "setting": "[28]", "result": 100, "unit": "%"},
      {"measurement": "Zea mays (efficacy in %)", "setting": "[29]", "result": 0, "unit": "%"}
    ]}
  ]
}
